{"source": "patent US20240325420A1", "about": "“COMPOSITION INCLUDING PAEONIFLORIN FOR PREVENTION OR TREATMENT OF CACHEXIA AND MUSCLE LOSS” (CHUNG ANG UNIVERSITY INDUSTRY ACADEMIC COOPERATION …, priority 2021, published 2024)", "format_in_all_cases": "in vivo", "key": {"[1]": {"system": "C57BL/6 mice with Lewis lung carcinoma-induced cachexia", "assay": "Body weight and muscle mass in C57BL/6 mice with Lewis lung carcinoma-induced cachexia", "experimental": "(§1) As the experimental animals, 4-week-old female C57BL/6 mice and Balb/c mice weighing 18 g to 20 g were purchased from Raon Bio (Yongin, Korea), acclimatized in the laboratory animal facility for one week, and then used in the experiment. During the experiment period, the animals were provided with solid feed and water ad libitum, and the breeding room was maintained at a temperature of 20° C. to 24° C. and a relative humidity of 55% to 65% with a 12-hr light/12-hr dark cycle.\n(§2) Mice were divided into a control group and a cachexia-induced group, and the cachexia-induced group was subdivided into a tumor cell-injected group, a tumor cell-injected and existing drug (MA, megestrol acetate)-administered group, and tumor cell-injected and paeoniflorin (Pae)-administered groups. Each group consisted of 10 animals.\nEach mouse of the control group was injected subcutaneously with 100 μL of saline solution. For the cachexia-induced groups, Lewis lung carcinoma cells (C57BL/6 mice) or colon-26 carcinoma cells (Balb/c mice) were injected subcutaneously into the flank area of each mouse at a dose of 10^6 cells/100 μL/mouse. After 2 weeks, when a distinct tumor was formed, the tumor cell-injected group was orally administered distilled water, the tumor cell-injected and existing drug-administered group was orally administered megestrol acetate (MA), which is currently most commonly prescribed for cancer cachexia patients in clinical practice, at a dose of 160 mg/kg (=800 mg [daily human dose]/60 kg [average human body weight]×12 [dose equivalent factor based on human:mouse body surface area ratio], once daily for 9 days, and the tumor cell-injected and paeoniflorin-administered groups were orally administered paeoniflorin (prepared in Example 1) once daily for 9 days at doses of 5 (Pae 5 group), 10 (Pae 10 group) and 20 (Pae 20 group) mg/kg, respectively. After completion of 9 days of administration, the muscle strength of the mice was measured using a grip strength test device (Bioseb, USA), and the endurance of the mice was measured using a treadmill device (Columbus Instrument, USA).\nAfter completion of the experiment, the mice were euthanized, blood was collected therefrom, the body weight excluding tumors, and the weights of the hind limb gastrocnemius muscle and quadriceps muscle were measured. GDF-15 in the serum was quantified by ELISA."}, "[2]": {"system": "C57BL/6 mice with cisplatin-induced cachexia", "assay": "Skeletal muscle function test in cisplatin-treated C57BL/6 mice", "details": "oral paeoniflorin 10 or 20 mg/kg", "experimental": "(§3) The animal experiments were performed in accordance with internationally accepted principles for laboratory animal use and care, and the corresponding study protocol was reviewed and approved by the Institutional Animal Care and Use Committee (IACUC) at Chung-Ang University (approval #2021-00022). Four-week-old female C57BL/6 mice and Balb/c mice were purchased from Raonbio Inc. (Yongin, Korea) and were provided with standard laboratory diet and water ad libitum in the animal facility of Chung-Ang University. After a week of acclimation, the mice were intraperitoneally injected three times with 3 mg/kg/day cisplatin, suspended in 200 μL saline, every other day. Control group mice (sham-treated mice) were injected with the same volume of saline under the same regimen. The cisplatin-treated groups were orally administered paeoniflroin (Pae) or megestrol acetate (MA), suspended in 200 μL distilled water, every day until euthanasia.\nSpecifically, the cisplatin-treated groups were orally administered paeoniflorin (prepared in Example 1) at a dose of 5 (Pae 5 group), 10 (Pae 10 group), or 20 (Pae 20 group) mg/kg once daily for 9 days. […]\nA skeletal muscle function test was conducted one day before euthanasia. Muscle strength of each mouse was measured by the grip strength of front paws, and endurance of each mouse was measured by treadmill running time until exhaustion. Motor coordination was measured by retention time on a rotating cylinder with a diameter of 3 cm (Castro and Kuang, 2017). The grip strength of each mouse was measured using a grip strength meter (Bio-GS3, Bioseb, Vitrolles, France). The treadmill running time of each mouse was measured on a treadmill (Exer-3/6, Columbus Instruments, […], USA). The ability of each mouse to stay on a rotating cylinder was measured using a rotarod apparatus (Panlab, Barcelona, Spain)."}, "[3]": {"system": "Balb/c mice with colon-26 carcinoma-induced cachexia", "assay": "Muscle strength and endurance in Balb/c mice with colon-26 carcinoma-induced cachexia", "details": "colon-26 carcinoma-injected, paeoniflorin orally for 9 days", "experimental": "as §1, §2\nEach mouse of the control group was injected subcutaneously with 100 μL of saline solution. For the cachexia-induced groups, Lewis lung carcinoma cells (C57BL/6 mice) or colon-26 carcinoma cells (Balb/c mice) were injected subcutaneously into the flank area of each mouse at a dose of 10^6 cells/100 μL/mouse. […] After completion of 9 days of administration, the muscle strength of the mice was measured using a grip strength test device (Bioseb, USA), and the endurance of the mice was measured using a treadmill device (Columbus Instrument, USA)."}, "[4]": {"system": "NF-κB signaling (p-IKK, p-IκB, IκB, NF-κB p65)", "assay": "NF-κB signaling in skeletal muscle by Western blotting", "details": "gastrocnemius muscle, C57BL/6 mice, cisplatin-treated, Pae 10 and Pae 20", "experimental": "Proteins were extracted from skeletal muscle using NucleoSpin kits (Macherey-Nagel, Duren, Germany) and quantified using the BCA Protein Assay Kit (Pierce, Rockford, IL, USA). Anti-β-actin antibody was used to quantify protein loading. For myosin protein (MyHC, myosin heavy chain), myogenic factor (MyoD), and NF-κB signaling system (p-IKK, IKK, p-IκB, and IκB), protein levels in the gastrocnemius muscle were measured by Western blotting. Band intensities were quantified using ImageJ software (NIH, Bethesda, MD, USA). Nuclear and cytoplasmic lysates were prepared from the skeletal muscle using a nuclear extraction kit (Active Motif, Carlsbad, CA, USA). The protein concentration of both lysates was measured using the BCA Protein Assay Kit (Pierce). Anti-NF-κB p65 was used as the primary antibody, and 10 μg of protein per lysate was analyzed by Western blotting. TBP (TATA box-binding protein) and β-actin were as controls for the nuclear and cytosolic lysates, respectively. The target DNA binding activity of NF-κB was measured using the TransAM NF-κB ELISA kit (Active Motif, USA). NF-κB signaling was analyzed by Western blotting of the total extract and the cytosolic and nuclear fraction from the skeletal muscle of C57BL/6 mice."}, "[5]": {"system": "Balb/c mice with cisplatin-induced cachexia", "assay": "Body weight and muscle mass in cisplatin-treated Balb/c mice", "experimental": "as §3\nSpecifically, the cisplatin-treated groups were orally administered paeoniflorin (prepared in Example 1) at a dose of 5 (Pae 5 group), 10 (Pae 10 group), or 20 (Pae 20 group) mg/kg once daily for 9 days. The comparative drug-treated group was orally administered megestrol acetate (MA), which is currently most commonly prescribed for cancer cachexia patients in clinical practice, at a dose of 160 mg/kg (=800 mg [daily human dose]/60 kg [average human body weight]×12 [dose equivalent factor based on human:mouse body surface area ratio], once daily for 9 days.\nIn addition, cisplatin-treated mice orally administered the same volume of distilled water were designated as the vehicle group. After completion of drug treatment, the mice of each group were euthanized with 10 mg/kg alfaxalone (Jurox, Rutherford, Australia). Blood was collected in test tubes containing EDTA, and centrifuged, and plasma was separated therefrom. Gastrocnemius and quadriceps skeletal muscles were dissected and weighed. The skeletal muscles were rapidly frozen in liquid nitrogen to be used for RT-qPCR, Western blotting, and ELISA."}}, "data": [{"smiles": "C[C@@]12C[C@@]3(O)O[C@@H](O1)[C@]1(COC(=O)c4ccccc4)[C@H]3C[C@@]12O[C@@H]1O[C@H](CO)[C@@H](O)[C@H](O)[C@H]1O", "note": "[paeoniflorin]", "values": [{"measurement": "body weight", "setting": "[1]; C57BL/6 mice, Lewis lung carcinoma-injected, paeoniflorin orally once daily for 9 days vs Lewis lung carcinoma-injected group, FIG. 14A", "value": "significantly increased"}, {"measurement": "weight of gastrocnemius muscle", "setting": "[1]; C57BL/6 mice, Lewis lung carcinoma-injected, paeoniflorin orally once daily for 9 days vs Lewis lung carcinoma-injected group, FIG. 14B", "value": "significantly increased"}, {"measurement": "weight of quadriceps muscle", "setting": "[1]; C57BL/6 mice, Lewis lung carcinoma-injected, paeoniflorin orally once daily for 9 days vs Lewis lung carcinoma-injected group, FIG. 14C", "value": "significantly increased"}, {"measurement": "effect on body weight and muscle mass compared with megestrol acetate (MA)", "setting": "[1]; Lewis lung carcinoma C57BL/6 mice, paeoniflorin 10 to 20 mg/kg/day vs megestrol acetate 160 mg/kg/day", "value": "better effect"}, {"measurement": "grip strength (muscle strength)", "setting": "[2]; FIG. 3A", "value": "significantly restored"}, {"measurement": "treadmill running time (endurance)", "setting": "[2]; FIG. 3B", "value": "significantly restored"}, {"measurement": "rotarod retention time (motor coordination)", "setting": "[2]; FIG. 3C", "value": "significantly restored"}, {"measurement": "muscle strength", "setting": "[3]; FIG. 17A", "value": "significantly increased"}, {"measurement": "endurance", "setting": "[3]; FIG. 17B", "value": "significantly increased"}, {"measurement": "level of p-IKK (phospho-IKK)", "setting": "[4]; FIG. 10A", "value": "reduced again"}, {"measurement": "level of p-IκB (phospho-IκB)", "setting": "[4]; FIG. 10B", "value": "reduced again"}, {"measurement": "level of IκB", "setting": "[4]; FIG. 11", "value": "increased"}, {"measurement": "cytosolic level of NF-κB", "setting": "[4]; FIG. 12A", "value": "increased"}, {"measurement": "nuclear level of NF-κB", "setting": "[4]; FIG. 12B", "value": "decreased"}, {"measurement": "body weight", "setting": "[5]; Pae 5, Pae 10, Pae 20 (mg/kg orally daily) vs negative control group, FIG. 2A", "value": "increased"}, {"measurement": "weight of gastrocnemius muscle", "setting": "[5]; Pae 5, Pae 10, Pae 20 vs negative control group, FIG. 2B", "value": "increased"}, {"measurement": "weight of quadriceps muscle", "setting": "[5]; Pae 5, Pae 10, Pae 20 vs negative control group, FIG. 2C", "value": "increased"}]}]}
